From US20220127297A1, “Novel Antibacterial 3"-Derivatives Of 4,6-Disubstituted 2,5-Dideoxystreptamine Aminoglycoside Antibiotics” (AGILeBiotics B.V., priority 2018, published 2022)
≈ marks a conversion by molar mass, not a printed value.

How the values were obtained:
[1] = Maximum tolerated dose (MTD) / acute toxicity study, IV; format: in vivo; conditions: for MTD at 4 days / LD50 at 4 days: male, CD (Sprague Dawley), rat, in vivo, iv; for LD50 at 4 days / LD50: rats, one-time IV dose over 15 min
Description: 4.4 Maximum Tolerated Dose (MTD) Study in Male CD (Sprague Dawley) Rats.
The study was performed in an AAALAC I—approved Facility. The standard study plan relating to this study was reviewed by the Ethical Committee (CARE-Zagreb) as required by International Laws/Regulations and Croatian Low on Animal Welfare (“The Animal Protection Act”, Official Gazette, NN 37/13) and Animal Welfare Officer.
In vivo studies were performed by Fidelta (Zagreb, Croatia) and all rats (Sprague Dawley) were obtained from Charles River Laboratories (Italy). Three compounds, i.e. ABX5006, ABX5020 and ABX5039 were tested to determine the MTD of the test articles in male CD (Sprague Dawley) rats following a one-time dose (IV).
MTD study: Pathogen-free male CD (Sprague Dawley) rats (3 rats per dosing group) weighing 225-260 g were used. Five different dosing groups (50 mg/kg, 75 mg/kg, 100 mg/kg, 150 mg/kg and 200 mg/kg) were used and the test article was administered intravenous over 15 min (slow injection, 5 mL/kg). […] Clinical signs, body weight, food consumption and mortality was recorded during the in-life phase of the study. All animals surviving to the end of the 4 day monitoring period were euthanized on day 4. Terminal studies included gross necropsy and organ weight recording of all animals.
Supplies/Chemicals. Sterile, single used needles (25 G Microlance, REF300400, Becton Dickinson); 2 mL syringes (REF300185, Becton Dickinson); Phosphate buffered saline (P3813, Sigma Aldrich); isoflurane anesthesia (Abbott, Netherlands)
Anesthesia. Animals were deeply anaesthetized using isoflurane and subsequently exsangunated for full post mortem examination.

[2] = tested on: Escherichia coli ATCC700336; assay: Urinary tract infection model; format: in vivo, female C3H/HeNRj mice; conditions: for Change from vehicle group / Avg. Log CFU/g (kidney pair): SC, QD; for Change from vehicle group: Avg. Log CFU/g (kidney pair) vs vehicle; for Avg. Log CFU/g (kidney pair): kidneys 24 hours post treatment
Description: 4.3 Urinary Tract Infection Model (Escherichia coli ATCC700336)
Two compounds, i.e. ABX5006 and ABX5026, and a comparator antibiotic (gentamicin sulfate; Cat. No. G4918, Sigma Aldrich) were tested in a mouse model of urinary tract infection with Escherichia coli ATCC700336.
Urinary tract infection model: Pathogen-free female C3H/HeNRj mice (8 mice per dosing group) weighing 24±4 g were used.
For subcutaneous treatment, pre-weighed reference compound (gentamicin sulfate) was dissolved in 0.9% sodium chloride solution, to reach a final concentration of 1.5 mg/mL for a dose of 15 mg/kg (group 3) or 3.0 mg/mL for a dose of 30 mg/kg (group 2). Each mouse was infected transurethral with Escherichia coli ATCC700336 (5.0×10^1 CFU/100 μL/mouse), under light ketamine/xylazine anesthesia. Mice were water deprived 1.5 hours prior to infection and 1 hour post infection.
Animals were dosed subcutaneously once either with gentamicin (groups 2-3), ABX5006 (groups 4-5), ABX5026 (groups 6-7) or vehicle—PBS (group 1) 24 hours post infection.
Both kidneys were aseptically removed and placed into pre-weighed sterile Precellys test tube containing 2 mL of sterile PBS. Post-sampling, Precellys test tubes were weighed once again. Kidneys were homogenized in sterile PBS by Precellys Evolution, homogenizer, BERTIN Technologies, and serially diluted for CFU determination. Kidney pairs of one animal will represent one sample.
Supplies/Chemicals. Tryptic Soy Agar (BD Cat. no. 236950, Becton Dickinson), Trypticase Soy Broth (BD Cat. no. 211768, Becton Dickinson), 2 mL syringes (BD Plastipak, Ref. 300185, Becton Dickinson), 1 mL syringes (BD Plastipak, Ref. 300013, Becton Dickinson), Sterile, single use needles (BD MICROLANCE, 27 G ¾, Nr. 20 ref. 300220, Becton Dickinson), Sterile, single use needles (BD MICROLANCE, 25 G 1, Nr. 18 ref. 300400, Becton Dickinson), Narkamon (100 mg/mL ketamine chloride) (Bioveta, a.s., Czech Republic), Xylazine 2% (Alfasan International B.V., Woerden, Netherlands), Saline (HZ™, serial no.: 1422115), PBS (Sigma, cat. no. P4417, Germany), Precellys lysing kit (ref. no. KT03961-1-302.7, Bertin technologies, France).
Inoculum preparation for intramuscular infection. Escherichia coli ATCC 700336 was grown on Tryptic Soy Agar plate and incubated for 18-20 h at 37° C. Bacterial agar growth was suspended to 1.0×10^10 colony-forming units (CFU)/mL in adequate volume of tryptic soy broth (TSB), and the inoculum was held at 4° C. until it was used for infection.
CFU determination. Kidney pairs were homogenized using a Precellys Evolution homogenizer (Bertin Instruments).

[3] = tested on: Escherichia coli (ATCC 700336); assay: MIC against the strain of the urinary tract infection model; format: cell-based; conditions: ATCC700336

| Structure (SMILES) | MTD at 4 days [1] | LD50 at 4 days [1] | LD50 [1] | CFU count reduction in kidneys in comparison to the vehicle control group ([2]; dose 15 mg/kg SC QD) | Change from vehicle group ([2]; dose 15 mg/kg) | Avg. Log CFU/g (kidney pair) ([2]; dose 15 mg/kg) | CFU count reduction in kidneys in comparison to the vehicle control group ([2]; dose 30 mg/kg SC QD) | Change from vehicle group ([2]; dose 30 mg/kg) | Avg. Log CFU/g (kidney pair) ([2]; dose 30 mg/kg) | samples with CFU counts below the limit of detection ([2]; kidneys, LOD=2.0×10^2 CFU/mL) | MIC [3] |
| --- | --- | --- | --- | --- | --- | --- | --- | --- | --- | --- | --- |
| N=C(NC[C@@H]1CCNC1)NC1[C@@H](O)C(OC2[C@@H](F)[C@H](O[C@H]3OC(CN)[C@@H](O)CC3N)C(N)C[C@H]2NC(=O)[C@@H](O)CCN)O[C@H](CO)[C@H]1O (stereo partly drawn) [ABX5039, Tobra-AHB-F-Gua (R) pyrrolidine-3-ylmethyl] | 75 mg/kg | > 75 mg/kg | 75 to 100 mg/kg | – | – | – | – | – | – | – | – |
| N=C(NC[C@@H]1CCCN1)NC1[C@@H](O)C(OC2[C@@H](F)[C@H](O[C@H]3OC(CN)[C@@H](O)CC3N)C(N)C[C@H]2NC(=O)[C@@H](O)CCN)O[C@H](CO)[C@H]1O (stereo partly drawn) [ABX5026, Tobra-AHB-F-Gua (S) pyrrolidine-2-yl-methyl] | 75 mg/kg | > 75 mg/kg | – | 1.58 log 10 | 1.58 | 1.40 Log CFU/g | 1.72 log 10 | 1.22 | 2.26 Log CFU/g | five out of eight | 1 µg/mL (≈ 1.44 µM) |
| N=C(N)NC1C(O)[C@@H](CO)OC(OC2C(F)[C@H](O[C@H]3OC(CN)[C@@H](O)CC3N)C(N)C[C@H]2NC(=O)[C@@H](O)CCN)[C@@H]1O (some centres unmarked) [ABX5006, Tobra-AHB-F-Gua] | 150 mg/kg | > 200 mg/kg | >200 mg/kg | 1.38 log 10 | 1.38 | 2.60 Log CFU/g | 1.53 log 10 | 1.53 | 1.45 Log CFU/g | – | 0.25 µg/mL (≈ 0.408 µM) |
